Assay results published in patent publication US20250270227A1, “CAMPTOTHECIN DERIVATIVE, AND PHARMACEUTICAL COMPOSITION AND USE THEREOF” (SIMCERE ZAIMING PHARMACEUTICAL CO., LTD., priority 2021, published 2025).
Where two headings read alike, the source gives them in different places.

Tests used:
[1] = system: human small cell lung cancer cell line NCI-H82; assay: Test 2 of anti-proliferative activity against tumor cells (Cell-Titer Glo); format: cell-based; conditions: read-out: NCI-H82 Anti-proliferative activity IC50, NCI-H82 cells, 5 days, Cell-Titer Glo
Protocol: Cell culture: SK-OV-3 cells were cultured in McCoy's 5a medium containing 10% fetal bovine serum+1% penicillin-streptomycin, PA-1 cells were cultured in MEM medium containing 10% fetal bovine serum+1% MEM NEAA+1% sodium pyruvate+1% penicillin-streptomycin, NCI-H82 cells and MDA-MB-231 cells were cultured in 1640 medium containing 10% fetal bovine serum+1% penicillin-streptomycin, A549 cells were cultured in DMEM medium containing 10% fetal bovine serum+1% penicillin-streptomycin, all under conditions of 37° C. and 5% CO2. Cells in logarithmic growth phase were suitable for the experiment.
Detection of cell proliferation activity: The inhibitory activity of the compounds on the proliferation of the five cell lines SK-OV-3, PA-1, NCI-H82, MDA-MB-231 and A549 was detected using Cell-Titer Glo reagent. SK-OV-3 cell (1000 cells per well), PA-1 cells (800 cells per well), NCI-H82 cells (5000 cells per well), MDA-MB-231 cells (3000 cells per well) and A549 cells (400 cells per well) were seeded in 96-well plates and cultured at 37° C. and 5% CO2 for 24 h. The compound to be tested was dissolved in DMSO to a concentration of 1 mM, then subjected to gradient dilution with DMSO and corresponding medium, and transferred to 96-well cell plates to a final concentration of 300 nM (initial concentration), with 3-fold dilution and a total of 9 concentration points. The cells were cultured at 37° C. and 5% CO2 for additional 5 days. The cell viability was detected by adding Cell-Titer Glo reagent.
Additionally, a negative control group and a positive control group were provided as Bottom and Top, respectively. In the negative control group, the cells were not added, only the same volume of medium was added, and other operations were consistent with those in the experimental group; in the positive control group, the test compound was not added, only the same volume of DMSO was added, and other operations were consistent with those in the experimental group.
Data analysis: The % compound inhibition was calculated, and fitting was performed to obtain IC50 of the compound.
% Compound inhibition=1−100%*(Signal−Bottom)/(Top−Bottom).
Signal represents the signal value of the experimental group, Bottom represents the average signal value of the negative control group, and Top represents the average signal value of the positive control group.

[2] = Metabolic stability in liver microsomes; format: in vitro ADME, human; conditions: for half-life at 1 μM: human, microsomes
Protocol: The metabolic stability of the compounds of the present disclosure in liver microsomes was determined by the following experimental method.
• 1. Human liver microsomes (Corning 452117), Beagle dog liver microsomes (XENOTECH D1000), SD rat liver microsomes (XENOTECH R1000) and CD-1 mouse liver microsomes (XENOTECH M1000) • 2. Na2HPO4 (Tianjin Guangfu Fine Chemical Research Institute 20180130) • 3. KH2PO4 (Tianjin Guangfu Fine Chemical Research Institute 20180920) • 4. MgCl2 (Tianjin Guangfu Fine Chemical Research Institute 20191216) • 5. NADPH (Solarbio 1216C022) • 6. Positive control compound verapamil (Sigma MKBV4993V) • 7. AB Sciex API4000 liquid chromatography-mass spectrometry
• 1. Preparation of 100 mM phosphate buffered saline (PBS): 7.098 g of Na2HPO4 was weighed, 500 mL of pure water was added and subjected to ultrasonic dissolution to obtain solution A. 3.400 g of KH2PO4 was weighed, 250 mL of pure water was added and subjected to ultrasonic dissolution to obtain solution B. Solution A was placed on a stirrer and solution B was slowly added until the pH value reached 7.4 to prepare 100 mM PBS buffer. • 2. Preparation of reaction system
The reaction system was prepared according to the following table:
• 3. The reaction system was placed in a 37° C. water bath and pre-incubated for 10 min. 40 μL of 10 mM NADPH solution (NADPH was dissolved in 100 mM phosphate buffer) was added to the reaction system with the final concentration of NADPH being 1 mM. 40 μL of phosphate buffer was used instead of NADPH solution as negative control. The role of the negative control was to exclude the effect of the chemical stability of the compounds themselves. • 4. 4 μL of 100 μM compound of the present disclosure and the positive control compound verapamil were added to the reaction system to initiate the reaction, with the final concentration of the compound being 1 μM. • 5. After thorough mixing on a vortex oscillator, 50 μL of the incubated sample was taken out at 0.5 min, 15 min, 30 min, 45 min and 60 min, respectively, and the reaction was stopped with 200 μL of glacial acetonitrile containing internal standard. The sample was centrifuged at 3220 g for 45 min. […]
All the data was calculated by the Microsoft Excel software. The peak area was detected by extracting the ion chromatogram. The in vitro half-life (t1/2) of the compound was determined by performing linear fitting of the natural logarithm of elimination percent of the compound and time.
The in vitro half-life (t1/2) was calculated by means of the slope k: […]
The in vitro intrinsic clearance (unit: μL/min/mg protein) was calculated using the following equation: […]

[3] = pH 7.4, human liver microsomes 0.5 mg/mL, 1 μM compound, 1 mM NADPH, 37° C., read-out: Stability in human liver microsomes t1/2

SMILES | IC50 [1] [nM] | half-life at 1 μM [2, 3] [h] | other results
CC[C@@]1(O)C(=O)OCc2c1cc1n(c2=O)Cc2c-1nc1cc3c(cc1c2CNC(=O)C(O)C1CC1)OCO3 (single isomer, unassigned) [Compound 14-P1] | 2.2 | 1.1 | –
CC[C@@]1(O)C(=O)OCc2c1cc1n(c2=O)Cc2c-1nc1cc3c(cc1c2CNC(=O)C(O)C1CC1)OCO3 (single isomer, unassigned) [Compound 14-P2] | 4.7 | – | Stability in human liver microsomes t1/2 ([2]; human liver microsomes 0.5 mg/mL, 1 μM compound, 1 mM NADPH, 37° C.): 0.835 h
CC[C@@]1(O)C(=O)OCc2c1cc1n(c2=O)Cc2c-1nc1cc3c(c(F)c1c2CNC(=O)[C@@H](O)C1CC1)OCO3 (single isomer, unassigned) [Compound 37-P1] | – | – | half-life at 1 μM ([2]; pH 7.4): 1.75 h
CC[C@@]1(O)C(=O)OCc2c1cc1n(c2=O)Cc2c-1nc1cc3c(cc1c2CNC(=O)C(O)C1CC1)OCO3 (stereo partly drawn) [Compound 14, 2-cyclopropyl-N-(((S)-7-ethyl-7-hydroxy-8,11-dioxo-7,8,11,13-tetrahydro-10H-[1,3]dioxolo[4,5-g]pyrano[3′,4′:6,7]indolizino[1,2-b]quinolin-14-yl)methyl)-2-hydroxyacetamide] | – | – | IC50 ([1]; Homo sapiens, 120 h): 3.9 nM
[2H]C1([2H])Oc2cc3nc4c(c(CNC(=O)C(O)C5CC5)c3cc2O1)Cn1c-4cc2c(c1=O)COC(=O)[C@]2(O)CC (stereo partly drawn) [Compound 39, 2-cyclopropyl-N-(((S)-7-ethyl-7-hydroxy-8,11-dioxo-7,8,11,13-tetrahydro-10H-[1,3]dioxolo[4,5-g]pyrano[3′,4′:6,7]indolizino[1,2-b]quinolin-14-yl-2,2-d2)methyl)-2-hydroxyacetamide] | – | 4.01 | –
